Source: patent US12303509B2, “Compounds for the treatment of BRAF-associated diseases and disorders” (Pfizer Inc., priority 2020, dated 2025)
Structures can show the parent of a compound that is named as a salt.

What was measured:
H1755 cells = assay: Cellular phospho-ERK inhibition assay in H1755 cells; type: cell-based; conditions: Homo sapiens, NCI-H1755, 2 hours treatment, read-out: H1755 Cell IC50
How it was run: (§1)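 In Cell Western detection of phospho-ERK1/2 (Thr202/Tyr204) over GAPDH after 2 h compound exposure (66 pM to 10 μM, 9 points, 0.25% DMSO) of A375 cells in DMEM or H1755 cells in RPMI, both with 10% FBS. Percent of control set by DMSO and 10 μM binimetinib; 4-parameter IC50.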

BCRP = BCRP (Homo sapiens (Human), UniProt Q9UNQ0); assay: BCRP MDCKII permeability assay: efflux ratio; type: in vitro ADME; conditions: dog
BCRP, sequence (Q9UNQ0 whole entry): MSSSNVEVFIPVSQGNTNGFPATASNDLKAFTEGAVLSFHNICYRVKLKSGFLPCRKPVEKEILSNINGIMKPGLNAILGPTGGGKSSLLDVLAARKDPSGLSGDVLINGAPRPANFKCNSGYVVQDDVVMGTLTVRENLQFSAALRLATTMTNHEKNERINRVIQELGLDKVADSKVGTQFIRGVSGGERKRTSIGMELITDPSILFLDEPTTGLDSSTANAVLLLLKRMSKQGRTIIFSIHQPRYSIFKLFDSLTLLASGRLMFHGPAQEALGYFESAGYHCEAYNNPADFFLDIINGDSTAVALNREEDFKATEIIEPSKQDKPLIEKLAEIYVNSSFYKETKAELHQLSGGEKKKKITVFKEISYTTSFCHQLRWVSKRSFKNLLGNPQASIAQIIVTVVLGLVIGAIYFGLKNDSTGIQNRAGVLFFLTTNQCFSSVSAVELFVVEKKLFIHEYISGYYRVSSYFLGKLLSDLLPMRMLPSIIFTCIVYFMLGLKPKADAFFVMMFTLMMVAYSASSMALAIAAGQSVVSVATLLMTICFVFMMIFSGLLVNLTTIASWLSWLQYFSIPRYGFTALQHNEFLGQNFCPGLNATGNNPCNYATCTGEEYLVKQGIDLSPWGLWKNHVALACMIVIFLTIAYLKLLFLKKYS
Experimental: BCRP transfected MDCKII cells were cultured and plated according to manufacturer's recommendations. Assay conditions included with and without the BCRP-specific inhibitor, KO143, at a concentration of 0.3 μM to ascertain the contribution of BCRP to the efflux value of the test compound.
Both positive and negative controls were used to assess functionality of P-gp or BCRP efflux in the assays. […] Final organic concentration in the assay was 1%. All dosing solutions contained 10 μM lucifer yellow to monitor LLC-PK1 or MDCKII cell monolayer integrity.
For the apical to basolateral determination (A to B), 75 μL of the test article in transport buffer were added to the apical side of the individual transwells and 250 μL of basolateral media, without compound or lucifer yellow, were added to each well. For the basolateral to apical determination (B to A), 250 μL of test article in transport buffer were added to each well and 75 μL transport buffer, without compound or lucifer yellow, were added to each transwell. All tests were performed in triplicate, and each compound was tested for both apical to basolateral and basolateral to apical transport. The plates were incubated for 2 hours on a Lab-Line Instruments Titer Orbital Shaker (VWR, West Chester, PA) at 50 rpm and 37° C. with 5% CO2. All culture plates were removed from the incubator and 50 μL of media were removed from the apical and basolateral portion of each well and added to 150 μL of 1 μM labetalol in 2:1 acetonitrile (acetonitrile): H2O, v/v.
These values were accepted when found to be below 2% for apical to basolateral and 5% basolateral to apical flux across the MDR1-transfected LLC-PK1 or BCRP-transfected MDCKII cell monolayers. The plates were sealed and the contents of each well analyzed by LC-MS/MS. The compound concentrations were determined from the ratio of the peak areas of the compound to the internal standard (labetalol) in comparison to the dosing solution.
The LC-MS/MS system was comprised of an HTS-PAL autosampler (Leap Technologies, Carrboro, NC), an HP1200 HPLC (Agilent, Palo Alto, CA), and a MDS Sciex 4000 Q Trap system (Applied Biosystems, Foster City, CA). […] The total run time, including re-equilibration, for a single injection was 1.2 minutes. Mass spectrometric detection of the analytes was accomplished using the ion spray positive mode.
An efflux ratio is calculated from the mean apical to basolateral (A-B) Papp data and basolateral to apical (B-A) Papp data using the following equation: Efflux ratio=Papp(B-A)/Papp(A-B)

[1] = MDR1 LLC-PK1 and BCRP MDCKII permeability assay: permeability coefficient (Papp); type: in vitro ADME
Source text: (§2) Final organic concentration in the assay was 1%.

A375 cells = assay: Cellular phospho-ERK inhibition assay in A375 cells; type: cell-based; conditions: Homo sapiens, A-375, A375 cells (head prints A357), 2 hours treatment, read-out: A357 cell IC50
How it was run: as §1

P-gp (MDR1) = P-gp (MDR1) (Homo sapiens (Human), UniProt P08183); assay: MDR1 LLC-PK1 permeability assay: efflux ratio; type: in vitro ADME; conditions: pig
P-gp (MDR1), sequence (P08183 whole entry, species assumed): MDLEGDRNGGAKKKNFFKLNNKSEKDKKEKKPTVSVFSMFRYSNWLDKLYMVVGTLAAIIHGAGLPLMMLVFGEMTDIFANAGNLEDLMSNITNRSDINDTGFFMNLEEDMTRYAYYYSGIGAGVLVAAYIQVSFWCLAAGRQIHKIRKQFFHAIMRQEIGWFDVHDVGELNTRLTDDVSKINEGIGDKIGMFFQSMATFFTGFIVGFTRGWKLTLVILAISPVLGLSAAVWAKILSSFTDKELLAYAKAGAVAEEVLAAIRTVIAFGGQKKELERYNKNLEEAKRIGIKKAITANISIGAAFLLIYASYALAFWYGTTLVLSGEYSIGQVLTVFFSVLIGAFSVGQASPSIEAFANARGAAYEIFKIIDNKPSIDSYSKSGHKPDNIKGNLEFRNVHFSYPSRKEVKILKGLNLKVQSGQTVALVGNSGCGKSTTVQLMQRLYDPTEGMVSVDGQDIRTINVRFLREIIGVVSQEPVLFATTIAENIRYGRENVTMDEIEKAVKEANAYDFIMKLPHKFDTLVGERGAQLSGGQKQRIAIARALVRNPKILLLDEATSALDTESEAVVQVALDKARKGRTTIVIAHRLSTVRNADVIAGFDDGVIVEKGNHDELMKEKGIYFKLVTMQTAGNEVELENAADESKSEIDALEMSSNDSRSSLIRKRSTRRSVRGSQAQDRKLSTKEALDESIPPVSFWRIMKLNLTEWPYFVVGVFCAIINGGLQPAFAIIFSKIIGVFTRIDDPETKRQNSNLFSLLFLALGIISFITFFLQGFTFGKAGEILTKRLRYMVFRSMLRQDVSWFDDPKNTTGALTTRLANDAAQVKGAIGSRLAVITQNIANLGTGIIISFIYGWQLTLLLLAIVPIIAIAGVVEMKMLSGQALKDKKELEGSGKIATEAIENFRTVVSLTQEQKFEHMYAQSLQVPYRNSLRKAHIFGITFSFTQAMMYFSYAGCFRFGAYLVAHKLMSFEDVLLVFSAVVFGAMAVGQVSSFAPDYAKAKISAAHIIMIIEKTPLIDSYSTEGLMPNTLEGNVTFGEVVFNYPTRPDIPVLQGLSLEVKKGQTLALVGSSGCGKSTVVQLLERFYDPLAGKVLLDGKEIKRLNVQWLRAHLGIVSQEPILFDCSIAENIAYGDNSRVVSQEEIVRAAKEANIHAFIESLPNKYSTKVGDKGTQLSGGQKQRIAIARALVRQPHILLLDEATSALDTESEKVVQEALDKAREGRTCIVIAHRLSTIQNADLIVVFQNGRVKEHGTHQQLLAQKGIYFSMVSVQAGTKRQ
Source text: as §2

[2] = biological target: full-length FLAG-tagged B-Raf(V600E) (Homo sapiens (Human), UniProt P15056, V600E); assay: BRAF V600E enzyme assay (TR-FRET competitive displacement); type: binding; conditions: averaged IC50; TR-FRET tracer displacement, 60 min
full-length FLAG-tagged B-Raf(V600E), sequence (P15056 whole entry V600E): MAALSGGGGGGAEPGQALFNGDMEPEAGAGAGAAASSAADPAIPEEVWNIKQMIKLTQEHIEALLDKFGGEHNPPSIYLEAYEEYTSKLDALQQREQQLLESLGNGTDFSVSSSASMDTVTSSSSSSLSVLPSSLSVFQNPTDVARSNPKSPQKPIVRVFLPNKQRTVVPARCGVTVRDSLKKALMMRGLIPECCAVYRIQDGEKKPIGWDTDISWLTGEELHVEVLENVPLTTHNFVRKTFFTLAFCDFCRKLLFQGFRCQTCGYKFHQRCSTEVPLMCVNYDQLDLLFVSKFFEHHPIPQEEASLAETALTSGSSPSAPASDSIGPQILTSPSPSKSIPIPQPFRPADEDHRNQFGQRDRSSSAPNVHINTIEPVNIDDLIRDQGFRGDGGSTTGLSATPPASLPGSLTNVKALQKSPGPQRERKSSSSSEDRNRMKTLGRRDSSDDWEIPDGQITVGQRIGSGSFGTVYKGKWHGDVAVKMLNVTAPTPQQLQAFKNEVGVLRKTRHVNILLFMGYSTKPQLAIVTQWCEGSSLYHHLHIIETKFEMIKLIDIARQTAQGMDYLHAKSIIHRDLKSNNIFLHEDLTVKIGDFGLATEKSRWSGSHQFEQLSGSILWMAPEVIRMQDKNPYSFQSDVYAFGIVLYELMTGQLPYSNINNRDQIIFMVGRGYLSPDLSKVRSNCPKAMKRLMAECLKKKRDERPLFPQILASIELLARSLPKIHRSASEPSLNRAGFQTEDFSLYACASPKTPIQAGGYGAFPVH
How it was run: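 TR-FRET tracer competition: compound (top dose 10 μM, 3-fold, 11 points) incubated 60 min at ambient temperature with FLAG-tagged full-length B-Raf(V600E) (5 nM), Eu anti-FLAG cryptate (0.5 nM) and tracer (50 nM), pH 7.4 HEPES/MgCl2 buffer. 665/615 ratio converted to percent of control; IC50 where fitted curve crosses 50 POC.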

| SMILES | IC50 (H1755 cells) [nM] | efflux ratio at 2 h, 1 µM (BCRP) | Papp at 2 h, 1 µM [1] [×10⁻⁶ cm/s] | IC50 (A375 cells) [nM] | efflux ratio at 2 h, 1 µM (P-gp (MDR1)) | IC50 [2] [nM] |
| --- | --- | --- | --- | --- | --- | --- |
| Cn1cnc2ccc(Oc3c(F)ccc(NS(=O)(=O)N4CC5CC5C4)c3Cl)c(Cl)c2c1=O (stereo not drawn) [Example 108, N-(2-chloro-3-((5-chloro-3-methyl-4-oxo-3,4-dihydroquinazolin-6-yl)oxy)-4-fluorophenyl)-3-azabicyclo[3.1.0]hexane-3-sulfonamide] | 1590 | 0.8 | 25 | 14 | 1.2 | 1 |
| Cc1c(Nc2c(F)ccc(NS(=O)(=O)N3CCCC3)c2F)ccc2ncn(C)c(=O)c12 [Example 113, N-(3-((3,5-dimethyl-4-oxo-3,4-dihydroquinazolin-6-yl)amino)-2,4-difluorophenyl)pyrrolidine-1-sulfonamide trifluoroacetate] | 358 | 1.9 | 18 | 40 | 1.3 | 38 |
| Cc1c(Nc2c(F)ccc(NS(=O)(=O)N3CCC3)c2Cl)ccc2ncn(C)c(=O)c12 [Example 124, N-(2-chloro-3-((3,5-dimethyl-4-oxo-3,4-dihydroquinazolin-6-yl)amino)-4-fluorophenyl)azetidine-1-sulfonamide trifluoroacetate] | 10000 | 1.3 | 43 | 21 | 1.1 | 17 |
| Cc1c(Nc2c(F)ccc(NS(=O)(=O)N3CC(F)C3)c2Cl)ccc2ncn(C)c(=O)c12 [Example 125, N-(2-chloro-3-((3,5-dimethyl-4-oxo-3,4-dihydroquinazolin-6-yl)amino)-4-fluorophenyl)-3-fluoroazetidine-1-sulfonamide] | 1010 | 1.6 | 37 | 18 | 1.2 | 5 |
| Cc1c(Nc2c(F)ccc(NS(=O)(=O)N3CC4C(F)C4C3)c2Cl)ccc2ncn(C)c(=O)c12 (stereo not drawn) [Example 148, N-(2-chloro-3-((3,5-dimethyl-4-oxo-3,4-dihydroquinazolin-6-yl)amino)-4-fluorophenyl)-6-fluoro-3-azabicyclo[3.1.0]hexane-3-sulfonamide] | 854 | 1.8 | 22 | 426 | 2.4 | 27 |
| Cc1c(Nc2c(F)ccc(NS(=O)(=O)N3CC4CC4(F)C3)c2Cl)ccc2ncn(C)c(=O)c12 (stereo not drawn) [Example 149, N-(2-chloro-3-((3,5-dimethyl-4-oxo-3,4-dihydroquinazolin-6-yl)amino)-4-fluorophenyl)-1-fluoro-3-azabicyclo[3.1.0]hexane-3-sulfonamide] | 337 | 3.2 | 25 | 108 | 1.2 | 8 |
| Cc1c(Nc2cc(F)cc(NS(=O)(=O)N3CCCC3)c2Cl)ccc2ncn(C)c(=O)c12 [Example 150, N-(2-chloro-3-((3,5-dimethyl-4-oxo-3,4-dihydroquinazolin-6-yl)amino)-5-fluorophenyl)pyrrolidine-1-sulfonamide] | 548 | 1.4 | 27 | 342 | 1.3 | 18 |
| Cc1c(Nc2cc(F)cc(NS(=O)(=O)N3CC[C@@H](F)C3)c2Cl)ccc2ncn(C)c(=O)c12 [Example 151, (R)-N-(2-chloro-3-((3,5-dimethyl-4-oxo-3,4-dihydroquinazolin-6-yl)amino)-5-fluorophenyl)-3-fluoropyrrolidine-1-sulfonamide] | 538 | 1.8 | 28 | 283 | 1.5 | 14 |
| CO[C@@H]1CCN(S(=O)(=O)Nc2cc(F)cc(Nc3ccc4ncn(C)c(=O)c4c3C)c2Cl)C1 [Example 152, (R)-N-(2-chloro-3-((3,5-dimethyl-4-oxo-3,4-dihydroquinazolin-6-yl)amino)-5-fluorophenyl)-3-methoxypyrrolidine-1-sulfonamide] | 329 | 1.4 | 37 | 305 | 1.3 | 29 |

Further molecules by falling IC50 (H1755 cells), results first:

| IC50 (H1755 cells) [nM] | efflux ratio at 2 h, 1 µM (BCRP) | Papp at 2 h, 1 µM [1] [×10⁻⁶ cm/s] | IC50 (A375 cells) [nM] | efflux ratio at 2 h, 1 µM (P-gp (MDR1)) | IC50 [2] [nM] | SMILES |
| --- | --- | --- | --- | --- | --- | --- |
| 327 | 6.4 | 33 | 68 | 1.4 | 7 | Cc1c(Nc2c(F)ccc(NS(=O)(=O)N3CC(F)(F)C3)c2Cl)ccc2ncn(C)c(=O)c12 [Example 134, N-(2-chloro-3-((3,5-dimethyl-4-oxo-3,4-dihydroquinazolin-6-yl)amino)-4-fluorophenyl)-3,3-difluoroazetidine-1-sulfonamide] |
| 272 | 0.8 | 34 | 13 | 1.1 | 7 | CCN(C)S(=O)(=O)Nc1ccc(F)c(Oc2ccc3ncn(C)c(=O)c3c2Cl)c1Cl [Example 109, N-(2-chloro-3-((5-chloro-3-methyl-4-oxo-3,4-dihydroquinazolin-6-yl)oxy)-4-fluorophenyl)-(N-ethyl-N-methyl)-sulfamide] |
| 189 | 5.1 | 29 | 22 | 1.9 | 3 | Cn1cnc2ccc(Nc3c(F)ccc(NS(=O)(=O)N4CC(F)(F)C4)c3Cl)c(Cl)c2c1=O [Example 135, N-(2-chloro-3-((5-chloro-3-methyl-4-oxo-3,4-dihydroquinazolin-6-yl)amino)-4-fluorophenyl)-3,3-difluoroazetidine-1-sulfonamide] |
| 174 | 5.2 | 31 | 36 | 2.2 | 16 | Cc1c(Nc2c(F)ccc(NS(=O)(=O)N3CC[C@@H](F)C3)c2F)ccc2ncn(C)c(=O)c12 [Example 114, (R)-N-(3-((3,5-dimethyl-4-oxo-3,4-dihydroquinazolin-6-yl)amino)-2,4-difluorophenyl)-3-fluoropyrrolidine-1-sulfonamide trifluoroacetate] |
| 128 | 1.3 | 49 | 25 | 1.5 | 16 | COC1CN(S(=O)(=O)Nc2ccc(F)c(Nc3ccc4ncn(C)c(=O)c4c3C)c2Cl)C1 [Example 128, N-(2-chloro-3-((3,5-dimethyl-4-oxo-3,4-dihydroquinazolin-6-yl)amino)-4-fluorophenyl)-3-methoxyazetidine-1-sulfonamide trifluoroacetate] |
| 116 | 1.9 | 30 | 8 | 2.7 | 1 | Cn1cnc2ccc(Oc3c(F)ccc(NS(=O)(=O)N4CC[C@H](F)C4)c3Cl)c(Cl)c2c1=O [Example 107, (S)-N-(2-chloro-3-((5-chloro-3-methyl-4-oxo-3,4-dihydroquinazolin-6-yl)oxy)-4-fluorophenyl)-3-fluoropyrrolidine-1-sulfonamide] |
| 89 | 18.3 | 24 | 7 | 3 | 6 | Cn1cnc2ccc(Nc3c(F)ccc(NS(=O)(=O)N4CC(F)(F)C4)c3Cl)c(F)c2c1=O [Example 136, N-(2-chloro-4-fluoro-3-((5-fluoro-3-methyl-4-oxo-3,4-dihydroquinazolin-6-yl)amino)phenyl)-3,3-difluoroazetidine-1-sulfonamide] |
| 48 | 1.4 | 34 | 6 | 1.5 | 8 | CN(C)S(=O)(=O)Nc1ccc(F)c(Oc2ccc3ncn(C)c(=O)c3c2Cl)c1Cl [Example 110, N-(2-chloro-3-((5-chloro-3-methyl-4-oxo-3,4-dihydroquinazolin-6-yl)oxy)-4-fluorophenyl)-(N,N-dimethyl)-sulfamide] |
| 26 | 3.1 | 33 | 6 | 3.1 | 3 | Cn1cnc2ccc(Nc3c(F)ccc(NS(=O)(=O)N4CC(COC(F)F)C4)c3Cl)c(Cl)c2c1=O [Example 138, N-(2-chloro-3-((5-chloro-3-methyl-4-oxo-3,4-dihydroquinazolin-6-yl)amino)-4-fluorophenyl)-3-((difluoromethoxy)methyl)azetidine-1-sulfonamide trifluoroacetate] |
| 18 | 6 | 35 | 7 | 1.9 | 9 | COCC1CN(S(=O)(=O)Nc2ccc(F)c(Oc3ccc4ncn(C)c(=O)c4c3F)c2Cl)C1 [Example 121, N-(2-chloro-4-fluoro-3-((5-fluoro-3-methyl-4-oxo-3,4-dihydroquinazolin-6-yl)oxy)phenyl)-3-(methoxymethyl)azetidine-1-sulfonamide] |
